From patent US12528767B2, “HDAC6 inhibitors and uses thereof” (Eikonizo Therapeutics, Inc., priority 2019, dated 2026)
Read-outs that look alike come from different tables or passages of the source. One block for each compound: values may come before it.

How the values were obtained:
[1] = biological target: T1, Full length Human HDAC6 (Homo sapiens, UniProt Q9UBN7); settings: for Selectivity (6 v 8) (fold): ratio of HDAC8 IC50/HDAC6 IC50
T1 sequence (Q9UBN7 1-1215): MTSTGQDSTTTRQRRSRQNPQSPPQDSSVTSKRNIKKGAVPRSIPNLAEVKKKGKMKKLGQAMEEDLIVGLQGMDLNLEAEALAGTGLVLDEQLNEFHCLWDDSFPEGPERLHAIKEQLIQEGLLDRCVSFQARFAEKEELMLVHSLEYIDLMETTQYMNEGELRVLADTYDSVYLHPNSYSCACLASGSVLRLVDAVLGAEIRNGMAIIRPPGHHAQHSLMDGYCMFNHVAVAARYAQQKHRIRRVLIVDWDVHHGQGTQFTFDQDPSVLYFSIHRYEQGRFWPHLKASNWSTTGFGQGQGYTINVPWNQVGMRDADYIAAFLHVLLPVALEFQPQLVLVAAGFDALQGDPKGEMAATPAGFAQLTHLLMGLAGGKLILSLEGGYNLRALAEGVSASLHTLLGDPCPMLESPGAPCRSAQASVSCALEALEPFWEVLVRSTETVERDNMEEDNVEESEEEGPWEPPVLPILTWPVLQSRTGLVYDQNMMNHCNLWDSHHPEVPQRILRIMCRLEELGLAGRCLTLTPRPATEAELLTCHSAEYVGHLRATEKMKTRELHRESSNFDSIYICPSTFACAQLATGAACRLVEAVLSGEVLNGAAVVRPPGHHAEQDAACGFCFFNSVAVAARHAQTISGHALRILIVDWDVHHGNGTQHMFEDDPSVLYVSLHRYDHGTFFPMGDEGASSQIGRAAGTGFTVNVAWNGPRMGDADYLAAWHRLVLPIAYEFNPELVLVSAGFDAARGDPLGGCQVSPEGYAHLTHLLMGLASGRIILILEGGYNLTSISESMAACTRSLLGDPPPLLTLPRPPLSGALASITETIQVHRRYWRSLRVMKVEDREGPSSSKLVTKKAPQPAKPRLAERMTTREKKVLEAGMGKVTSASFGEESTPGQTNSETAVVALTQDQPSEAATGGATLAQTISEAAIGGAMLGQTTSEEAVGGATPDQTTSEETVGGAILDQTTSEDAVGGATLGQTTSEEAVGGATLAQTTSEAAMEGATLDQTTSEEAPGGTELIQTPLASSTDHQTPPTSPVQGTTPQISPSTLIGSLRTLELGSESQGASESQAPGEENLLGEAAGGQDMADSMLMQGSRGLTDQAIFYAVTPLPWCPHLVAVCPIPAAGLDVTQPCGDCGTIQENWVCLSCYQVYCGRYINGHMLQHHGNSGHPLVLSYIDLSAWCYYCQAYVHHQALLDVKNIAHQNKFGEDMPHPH

[2] = test system: histone H3 acetylation (acH3K9) in undifferentiated SH-SY5Y cells; experiment: Histone H3 acetylation in cells (Western immunoblot); assay type: cell-based; settings: Homo sapiens, 4 hours, acetyl histone H3K9/histone H3 ratio
Procedure: (§1) Compound EC50 Determination for Tubulin- and Histone H3 Acetylation in Cells
(§2) Estimation of the EC50 for exemplary compounds to alter target protein acetylation in undifferentiated SH-SY5Y cells was performed using standard Western immunoblotting methods. […] SH-SY5Y cells were grown to 90% confluency on sterile cell growth plates. 10 mM compound stocks prepared in DMSO and two-fold serial dilutions were prepared from the stock and applied to cells to achieve a 12-point concentration range in cell media from an upper limit of 10 μM to a lower limit of DMSO [zero compound].
(§3) Cells were incubated under normal growth conditions (37° C., 5% CO2) in the presence of compound for 4 hours, then media was aspirated and cells were rinsed two times with 1×DPBS with calcium and magnesium warmed to 37° C. Cells were frozen directly on the plates on a bed of dry ice for 5 min, then stored at −80° C. until protein extraction.
(§4) Protein extraction was performed in RIPA buffer (50 mM Tris-HCL pH 8.0, 150 mM NaCl, 0.5% sodium deoxycholate, 0.1% sodium dodecyl sulfate, 1% NP-40) supplemented with Pierce protease inhibitor mini tables (Thermofisher cat #A32953) exactly as described by the manufacturer. After thawing the plate on a bed of wet ice for 10 minutes, lysis buffer was added to each well (e.g. 100 μL per well of a 24-well plate) and cells scraped from the bottom of each well. Lysates were then sonicated over ice (40% power, 30 pulses of 1 second on, 2 seconds off), centrifuged at 16,000 g for 10 min at 4° C., and the clarified supernatant saved. Protein concentration was determined by BCA assay and at least 3 μg prepared per lane by combining lysate supernatant aliquot with 1/3 total volume of 3× gel loading buffer containing DTT (NEB Cat. #B7703S), heating for 5 minutes at 95° C., briefly centrifuging and then loading on an SDS-PAGE gel.
(§5) Proteins were resolved on a 4-20% Tris-Glycine gel and transferred to PVDF membrane using an iBlot2 dry transfer system. The membrane was then blocked for at least 30 minutes at room temperature in TBST containing 5% milk or 5% bovine serum albumin, then incubated overnight at 4° C. with a single primary antibody from the following table:
(§6) Following primary antibody incubation, membranes were washed, incubated in secondary antibody, washed and incubated in ECL prime western blotting detection reagent (Amersham #RPN223) with membrane exposure and ECL signal capture in a LI-COR Odyssey Imaging system. […] Subsequent densitometry of immunoreactive bands was performed using the ImageStudio software and Microsoft Excel resulting in the following ratios: acetylTubulin/Tubulin and acetyl histone H3K9/histone H3. Raw ratios were uploaded to GraphPad Prism v7.0 with EC50 values modeled using the variable slope equation for log-transformed data [log(agonist) vs response in Prism].

[3] = biological target: T2, Full length Human HDAC8 (Homo sapiens, UniProt Q9BY41)
T2 sequence (Q9BY41 1-377): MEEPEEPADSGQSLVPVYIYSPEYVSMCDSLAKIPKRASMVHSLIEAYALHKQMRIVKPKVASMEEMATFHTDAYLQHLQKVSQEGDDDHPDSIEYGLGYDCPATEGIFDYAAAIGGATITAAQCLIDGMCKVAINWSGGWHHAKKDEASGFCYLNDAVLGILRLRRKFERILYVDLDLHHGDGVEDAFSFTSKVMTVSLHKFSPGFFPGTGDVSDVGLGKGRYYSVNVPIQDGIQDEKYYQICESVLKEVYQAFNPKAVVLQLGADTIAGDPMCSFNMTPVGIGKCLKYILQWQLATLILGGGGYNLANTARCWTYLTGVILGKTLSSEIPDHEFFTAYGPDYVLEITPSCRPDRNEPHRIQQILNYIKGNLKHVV

[4] = Plasma protein binding assay (Rapid Equilibrium Dialysis): mouse; assay type: in vitro ADME; design: dose or concentration left out as unconfirmed; settings: pH 7.4, RED, 5 hours at 37° C.
[5] = Plasma stability assay: mouse; assay type: in vitro ADME; settings: 10 μM, 37° C.
[6] = Metabolic stability in liver microsomes: Mouse BL6; assay type: in vitro ADME; settings: 1 μM compound, 0.3 mg/mL protein, NADPH, 37° C., read-out: Mouse BL6 Liver Microsome Stability Half-life
[7] = test system: tubulin acetylation (acTubK40) in undifferentiated SH-SY5Y cells; experiment: Tubulin acetylation in cells (Western immunoblot); assay type: cell-based; settings: Homo sapiens, 4 hours, acetylTubulin/Tubulin ratio
Procedure: as §1, §2, §3, §4, §5, §6

[8] = In vivo assessment of brain penetration in mice (IV 1 mg/kg, plasma and brain levels); settings: mouse, BL/6 mice
[9] = biological target: T3, Full length Human HDAC10 (Homo sapiens, UniProt Q969S8)
T3 sequence (Q969S8 1-669): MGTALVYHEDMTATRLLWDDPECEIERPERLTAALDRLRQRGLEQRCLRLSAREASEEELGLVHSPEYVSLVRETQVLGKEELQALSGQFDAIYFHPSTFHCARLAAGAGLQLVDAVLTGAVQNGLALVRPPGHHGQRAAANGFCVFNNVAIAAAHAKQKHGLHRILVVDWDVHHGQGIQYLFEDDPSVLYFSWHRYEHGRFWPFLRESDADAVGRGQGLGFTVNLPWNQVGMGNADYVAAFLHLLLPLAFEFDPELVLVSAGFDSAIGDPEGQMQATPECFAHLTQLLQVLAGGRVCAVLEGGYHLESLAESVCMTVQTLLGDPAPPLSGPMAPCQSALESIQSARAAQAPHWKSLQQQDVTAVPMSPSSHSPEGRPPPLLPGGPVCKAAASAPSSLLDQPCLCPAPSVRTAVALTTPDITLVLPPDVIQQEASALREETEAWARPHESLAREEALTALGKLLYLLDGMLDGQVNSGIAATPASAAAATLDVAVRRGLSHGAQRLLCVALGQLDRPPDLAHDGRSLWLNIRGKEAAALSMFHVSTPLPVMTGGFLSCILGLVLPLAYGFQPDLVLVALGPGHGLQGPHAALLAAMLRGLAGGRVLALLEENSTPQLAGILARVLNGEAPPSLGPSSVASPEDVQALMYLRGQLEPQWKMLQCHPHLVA

[10] = biological target: T4, Human HDAC7 aa 518-end (Homo sapiens, UniProt Q8WUI4)
T4 sequence (Q8WUI4 518-952 limits assumed): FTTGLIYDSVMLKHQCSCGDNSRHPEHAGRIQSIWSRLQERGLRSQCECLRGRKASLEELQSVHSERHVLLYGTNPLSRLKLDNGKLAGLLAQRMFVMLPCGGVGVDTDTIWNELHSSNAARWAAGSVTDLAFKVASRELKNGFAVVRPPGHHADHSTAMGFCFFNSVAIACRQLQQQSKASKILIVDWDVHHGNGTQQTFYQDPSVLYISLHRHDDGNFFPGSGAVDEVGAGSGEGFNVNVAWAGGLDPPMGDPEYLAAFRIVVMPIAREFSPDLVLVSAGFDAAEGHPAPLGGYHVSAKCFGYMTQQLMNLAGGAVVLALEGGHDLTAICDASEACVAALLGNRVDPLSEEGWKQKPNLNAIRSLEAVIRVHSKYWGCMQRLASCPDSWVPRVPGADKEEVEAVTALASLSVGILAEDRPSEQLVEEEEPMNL

[11] = Metabolic stability in liver microsomes: Mouse CD1; assay type: in vitro ADME; settings: 1 μM compound, 0.3 mg/mL protein, NADPH, 37° C., read-out: Mouse CD1 Liver Microsome Stability Half-life
[12] = in vitro; settings: human
[13] = Cell viability in primary rat dorsal root ganglia (DRG); assay type: cell-based
[14] = in vitro; settings: human; remark: listed apart in the source

IC50 [1]: 1 to 100 nM
Selectivity (6 v 8) (fold) ([1]; Table 1, number): 51 fold
Selectivity (6 v 8) (fold) ([1]; Table 1, range class): III (III: >10-100)
EC50 [2]: > 10000 nM
IC50 [3]: 100 to 1000 nM
fraction unbound at 5 h [4]: 0.062
Mouse Plasma Stability (% Remaining at 120 min) [5]: 43.8%
half-life at 1 μM [6]: 78.5 min
EC50 [7]: 100 nM
concentration at 15 min ([8]; brain, 15 min, read-out: Mouse Brain Conc (μM) at 15 min): 0.15 µM
concentration at 60 min ([8]; brain, 60 min, read-out: Mouse Brain Conc (μM) at 60 min): 0.03 µM
concentration at 15 min ([8]; plasma, 15 min, read-out: Mouse Plasma Conc (μM) at 15 min): 0.21 µM
concentration at 60 min ([8]; plasma, 60 min, read-out: Mouse Plasma Conc (μM) at 60 min): 0.05 µM
Kp at 15 min ([8]; brain and plasma, brain:plasma, 15 min, read-out: Mouse B:P at 15 min): 0.72
Kp at 60 min ([8]; brain and plasma, brain:plasma, 60 min, read-out: Mouse B:P at 60 min): 0.6
SMILES: O=C(NO)c1ccc(CN2CCc3c([nH]c4ccccc34)C2)c(F)c1 [compound 46]

IC50 [9]: 10000 to 100000 nM
IC50 [1]: 1 to 100 nM
Selectivity (6 v 8) (fold) ([1]; Table 1, number): 291.4 fold
Selectivity (6 v 8) (fold) ([1]; Table 1, range class): IV (IV: >100-1000)
IC50 ([1]; read-out: In vitro enzymatic IC50, HDAC Paralog 6, Table 2): 1 to 100 nM
IC50 [3]: 1000 to 10000 nM
IC50 ([3]; read-out: In vitro enzymatic IC50, HDAC Paralog 8, Table 2): 1000 to 10000 nM
IC50 [10]: 1000 to 10000 nM
half-life at 1 μM [11]: 7.1 min
SMILES: O=C(NO)c1cc(F)c2c(c1)CN(CC13CC4CC(CC(C4)C1)C3)C2 [compound 33]

SMILES: O=C(CCCCCCC(=O)Nc1ccccc1)NO [Vorinostat]
viability at 48 h, 30 µM [12]: 40.3 ± 1.8%
CC50 at 72 h [13]: 390 nM
viability at 4 h, 30 µM [14]: 117 ± 7.5%
